Data as given in PubChem BioAssay AID2060899 (Molecular Pharmacology Branch, DTP, NCI, 2025).
pIC50: −log10 of the molar value.

Test system: 565726-208-R1-J5-PDC complex spheroids, growth inhibition
Assay: Anticancer human tumor 565726-208-R1-J5-PDC patient-derived pancreatic adenocarcinoma cell line growth inhibition [RAS]
Details: for pIC50: curve of first compound; for viability, T/C: stronger effect = lower value
How it was run: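 Tumour cells grown as complex spheroids with HUVEC endothelial cells and mesenchymal stem cells, treated with RAS pathway inhibitor combinations. Each agent spans half-log steps from near clinical Cmax, or 10 microM where Cmax is unknown.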

[1] = second compound 0.000949 µM, first compound 0.0316 µM
[2] = second compound 0.000949 µM, first compound 0.1 µM
[3] = second compound 0.000949 µM, first compound 0.316 µM
[4] = second compound 0.000949 µM, first compound 1 µM
[5] = second compound 0.003 µM, first compound 0.0316 µM
[6] = second compound 0.003 µM, first compound 0.1 µM
[7] = second compound 0.003 µM, first compound 0.316 µM
[8] = second compound 0.003 µM, first compound 1 µM
[9] = second compound 0.00949 µM, first compound 0.0316 µM
[10] = second compound 0.00949 µM, first compound 0.1 µM
[11] = second compound 0.00949 µM, first compound 0.316 µM
[12] = second compound 0.00949 µM, first compound 1 µM
[13] = second compound 0.03 µM, first compound 0.0316 µM
[14] = second compound 0.03 µM, first compound 0.1 µM
[15] = second compound 0.03 µM, first compound 0.316 µM
[16] = second compound 0.03 µM, first compound 1 µM
[17] = second compound 0.0949 µM, first compound 0.0316 µM
[18] = second compound 0.0949 µM, first compound 0.1 µM
[19] = second compound 0.0949 µM, first compound 0.316 µM
[20] = second compound 0.0949 µM, first compound 1 µM
[21] = second compound 0.3 µM, first compound 0.0316 µM
[22] = second compound 0.3 µM, first compound 0.1 µM
[23] = second compound 0.3 µM, first compound 0.316 µM
[24] = second compound 0.3 µM, first compound 1 µM
[25] = second compound 0.000949 µM, first compound 0.00316 µM
[26] = second compound 0.000949 µM, first compound 0.01 µM
[27] = second compound 0.003 µM, first compound 0.00316 µM
[28] = second compound 0.003 µM, first compound 0.01 µM
[29] = second compound 0.00949 µM, first compound 0.00316 µM
[30] = second compound 0.00949 µM, first compound 0.01 µM
[31] = second compound 0.03 µM, first compound 0.00316 µM
[32] = second compound 0.03 µM, first compound 0.01 µM
[33] = second compound 0.0949 µM, first compound 0.00316 µM
[34] = second compound 0.0949 µM, first compound 0.01 µM
[35] = second compound 0.3 µM, first compound 0.00316 µM
[36] = second compound 0.3 µM, first compound 0.01 µM
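Also: spheroids exposed to compounds for seven days before readout.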
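For viability, T/C in this document: 100% = DMSO vehicle control viability.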

In the case of `CC(Nc1ccc2c(c1)OCCn1cc(N3C(=O)OCC3C(F)F)nc1-2)C(N)=O` (stereo unspecified) + CCn1c(-c2cccnc2C(C)OC)c2c3cc(ccc31)N1CCOC(CC(NC(=O)C(C(C)C)N(C)C(=O)C3(F)CCN(C(=O)C#CC(C)(C)N(C)C)CC3)C(=O)N3CCCC(N3)C(=O)OCC(C)(C)C2)C1, the pIC50 (second compound 0.000949 µM) was < 5.00, the pIC50 (second compound 0.003 µM) was < 5.00 and the pIC50 (second compound 0.00949 µM) was 5.05. For the same molecule, the pIC50 (second compound 0.03 µM) was 5.06, the pIC50 (second compound 0.0949 µM) was 5.15 and the pIC50 (second compound 0.3 µM) was 5.62. The viability, T/C [1] was 87.5%, the viability, T/C [2] was 80.8% and the viability, T/C [3] was 77.3%. For the same molecule, the viability, T/C [4] was 72.8%, the viability, T/C (second compound 0.000949 µM, first compound 3.16 µM) was 64.8% and the viability, T/C (second compound 0.000949 µM, first compound 10 µM) was 50.7%. The viability, T/C [5] was 93.7%, the viability, T/C [6] was 88.4% and the viability, T/C [7] was 75%. It also gave a viability, T/C [8] of 75.9%, a viability, T/C (second compound 0.003 µM, first compound 3.16 µM) of 62.9% and a viability, T/C (second compound 0.003 µM, first compound 10 µM) of 52.9%. For the same molecule, the viability, T/C [9] was 92.3%, the viability, T/C [10] was 91.2% and the viability, T/C [11] was 77.8%. For the same molecule, the viability, T/C [12] was 77.6%, the viability, T/C (second compound 0.00949 µM, first compound 3.16 µM) was 63.7% and the viability, T/C (second compound 0.00949 µM, first compound 10 µM) was 47.7%. For the same molecule, the viability, T/C [13] was 93%, the viability, T/C [14] was 85.6% and the viability, T/C [15] was 80.4%. For the same molecule, the viability, T/C [16] was 71.1%, the viability, T/C (second compound 0.03 µM, first compound 3.16 µM) was 55.2% and the viability, T/C (second compound 0.03 µM, first compound 10 µM) was 49.9%. The viability, T/C [17] was 88.8%, the viability, T/C [18] was 82.4% and the viability, T/C [19] was 84.4%. For the same molecule, the viability, T/C [20] was 65.9%, the viability, T/C (second compound 0.0949 µM, first compound 3.16 µM) was 63% and the viability, T/C (second compound 0.0949 µM, first compound 10 µM) was 44.8%. The viability, T/C [21] was 80%, the viability, T/C [22] was 72.8% and the viability, T/C [23] was 72%. It also gave a viability, T/C [24] of 63.7%, a viability, T/C (second compound 0.3 µM, first compound 3.16 µM) of 44.9% and a viability, T/C (second compound 0.3 µM, first compound 10 µM) of 38.2%.
`CCN1CCN(Cc2ccc(Nc3ncc(F)c(-c4cc(F)c5nc(C)n(C(C)C)c5c4)n3)nc2)CC1` + CCn1c(-c2cc(N3CCN(C)CC3)cnc2C(C)OC)c2c3cc(ccc31)-c1csc(n1)CC(NC(=O)C1CC1C)C(=O)N1CCCC(N1)C(=O)OCC(C)(C)C2 was tested, and the pIC50 (second compound 0.000949 µM) was 7.14, the pIC50 (second compound 0.003 µM) was > 8.50 and the pIC50 (second compound 0.00949 µM) was > 8.50. For the same molecule, the pIC50 (second compound 0.03 µM) was > 8.50, the pIC50 (second compound 0.0949 µM) was > 8.50 and the pIC50 (second compound 0.3 µM) was > 8.50. The viability, T/C [25] was 57.7%, the viability, T/C [26] was 57.9% and the viability, T/C [1] was 57%. It also gave a viability, T/C [2] of 47.2%, a viability, T/C [3] of 35.4% and a viability, T/C [4] of 31.6%. It also gave a viability, T/C [27] of 51.7%, a viability, T/C [28] of 41.4% and a viability, T/C [5] of 51.7%. The viability, T/C [6] was 35.5%, the viability, T/C [7] was 35% and the viability, T/C [8] was 23.9%. The viability, T/C [29] was 41.4%, the viability, T/C [30] was 41.4% and the viability, T/C [9] was 31.1%. The viability, T/C [10] was 32.4%, the viability, T/C [11] was 22.3% and the viability, T/C [12] was 18.8%. The viability, T/C [31] was 33.2%, the viability, T/C [32] was 29.2% and the viability, T/C [13] was 28.4%. It also gave a viability, T/C [14] of 25.5%, a viability, T/C [15] of 22.7% and a viability, T/C [16] of 18.8%. The viability, T/C [33] was 25.1%, the viability, T/C [34] was 23.8% and the viability, T/C [17] was 22%. It also gave a viability, T/C [18] of 21.1%, a viability, T/C [19] of 19.4% and a viability, T/C [20] of 15.7%. The viability, T/C [35] was 24.1%, the viability, T/C [36] was 23.3% and the viability, T/C [21] was 20.1%. For the same molecule, the viability, T/C [22] was 18.8%, the viability, T/C [23] was 18% and the viability, T/C [24] was 15.6%.
With `Nc1ccn(C2OC(CO)C(O)C2(F)F)c(=O)n1` (stereo unspecified) + CCn1c(-c2cc(N3CCN(C)CC3)cnc2C(C)OC)c2c3cc(ccc31)-c1csc(n1)CC(NC(=O)C1CC1C)C(=O)N1CCCC(N1)C(=O)OCC(C)(C)C2 the pIC50 (second compound 0.000949 µM) was 7.66, the pIC50 (second compound 0.003 µM) was 8.14 and the pIC50 (second compound 0.00949 µM) was > 8.50. For the same molecule, the pIC50 (second compound 0.03 µM) was > 8.50, the pIC50 (second compound 0.0949 µM) was > 8.50 and the pIC50 (second compound 0.3 µM) was > 8.50. It also gave a viability, T/C [25] of 63.3%, a viability, T/C [26] of 54.7% and a viability, T/C [1] of 49.9%. For the same molecule, the viability, T/C [2] was 34.4%, the viability, T/C [3] was 35% and the viability, T/C [4] was 27.8%. The viability, T/C [27] was 56.7%, the viability, T/C [28] was 46.3% and the viability, T/C [5] was 40.4%. For the same molecule, the viability, T/C [6] was 33.6%, the viability, T/C [7] was 33.1% and the viability, T/C [8] was 24.3%. The viability, T/C [29] was 38.8%, the viability, T/C [30] was 42.1% and the viability, T/C [9] was 34.2%. It also gave a viability, T/C [10] of 29.1%, a viability, T/C [11] of 28.3% and a viability, T/C [12] of 23.7%. The viability, T/C [31] was 28.9%, the viability, T/C [32] was 31.7% and the viability, T/C [13] was 24.4%. It also gave a viability, T/C [14] of 22.1%, a viability, T/C [15] of 24.1% and a viability, T/C [16] of 21.7%. For the same molecule, the viability, T/C [33] was 25.4%, the viability, T/C [34] was 26.9% and the viability, T/C [17] was 23.1%. For the same molecule, the viability, T/C [18] was 21.1%, the viability, T/C [19] was 19.1% and the viability, T/C [20] was 18.9%. It also gave a viability, T/C [35] of 22.3%, a viability, T/C [36] of 25.2% and a viability, T/C [21] of 23.3%. For the same molecule, the viability, T/C [22] was 20.9%, the viability, T/C [23] was 22.2% and the viability, T/C [24] was 19%.
